Data published in patent publication US20010053781A1, “Pharmaceutical composition for enhancing cognition” (National Science Council, priority 2000, published 2001).

Key:
[1] = test system: scopolamine (SCOP)-induced acquisition impairment of passive avoidance response in rats; experiment: Passive avoidance task, scopolamine-induced impairment with peripheral antagonist scopolamine methylbromide; format: in vivo, rat; details: FIG. 7
Method: (§1) Male Sprague-Dawley rats, weighing 200-250 grams, were housed in groups of six with free access to food and water and kept in a regulated environment (23±1° C.), wherein a 12-hour light-dark cycle (08:00-20:00 hours light) was maintained. Each experimental group included 12-18 rats. Rats were trained in a step-through passive avoidance task (Muromachi Kikai Co. Ltd. Japan). The apparatus consisted of two compartments having a steel-rod grid floor (36 parallel steel rods, 0.3 cm in diameter set 1.5 cm apart). One of the compartments (48×20×30 cm) was equipped with a 20 Watt lamp located centrally at a height of 30 cm, and the other was a dark compartment of the same size connected through a guillotine door (5×5 cm). The dark room was used during the experimental sessions that were conducted between 09:00 and 17:00. During the trial training, the guillotine door connecting the light and dark compartment was kept closed. After each rat was placed in the light compartment with its back to the guillotine door, the door was opened and simultaneously the time (step-through latency; STL) taken by the rat to enter the dark compartment was measured with a stopwatch^(14). Once the rat entered the dark compartment, the door was closed. An inescapable scrambled footshock (1.0 mA for 2 sec) was then delivered through the grid floor. […]

[2] = test system: cerebral blood flow rate in rats; experiment: Cerebral blood flow rate by laser Doppler flowmetry; format: in vivo, rat; details: 50-100 mg/kg ferulic acid, from 10 to 40 minutes after administration, FIG. 10
Method: The cerebral blood flow rate was measured by laser Doppler flowmetry in rats according to the procedure described in Morikawa, E. et al.^(19).

[3] = test system: deficit of place learning in the Morris water maze task induced by scopolamine in rats; experiment: Morris water maze test, scopolamine-induced deficit of place learning; format: in vivo, rat; details: 50-100 mg/kg ferulic acid i.p., scopolamine 0.3 mg/kg i.p., FIG. 9
Method: The water maze apparatus (Columbus Instruments Intl. Co., USA) was used in this Example. The swimming time and track of rats in the water maze were monitored by the Videomex V System and recorded by computer software. The water maze apparatus consisted of a water tank of 180 cm in diameter and 35 cm in height. The water stained as milk-white color was poured into the tank (25 cm in depth, 23±1° C.) before the training trial. The tank was conceptually divided into the 4 quadrants of east, west, south and north on the computer. An acrylic plate of 10 cm in diameter was placed at the north quadrant 1 cm below the water level. Rats were trained 4 times per day as one training course for 5 days. In one training course, each rat swam to the acrylic plate from 4 different quadrants, respectively. 10 seconds after swimming to the acrylic plate, the rat was returned to the home cage. After 30 seconds of rest, the next training session was carried out. The swimming time from the beginning to the acrylic plate was recorded, and an upper cut-off time of 60 seconds was set^(18). Ferulic acid (Sigma) was freshly dissolved in carboxy-methyl cellulose, and administered to rats (50, 100 mg/kg, i.p.) 1 hour before the training trial in combination with the following drug: scopolamine HBr (muscarinic receptor blocker; 0.3 mg/kg, i.p.) 30 minutes before the training trial for inducing acquisition impairment.

[4] = test system: AF64A-induced impairment of passive avoidance response in rats; experiment: Passive avoidance task, AF64A-induced impairment; format: in vivo, rat; details: ferulic acid at 50-100 mg/kg, AF64-A 3 nmol/μl/brain into lateral ventricle 10 days before training, FIG. 8
Method: Male Sprague-Dawley rats, weighing 200-250 grams, were housed in groups of six with free access to food and water and kept in a regulated environment (23±1° C.), wherein a 12-hour light-dark cycle (08:00-20:00 hours light) was maintained. Each experimental group included 12-18 rats.
Rats were trained in a step-through passive avoidance task (Muromachi Kikai Co. Ltd. Japan). The apparatus consisted of two compartments having a steel-rod grid floor (36 parallel steel rods, 0.3 cm in diameter set 1.5 cm apart). One of the compartments (48×20×30 cm) was equipped with a 20 Watt lamp located centrally at a height of 30 cm, and the other was a dark compartment of the same size connected through a guillotine door (5×5 cm). […]
During the trial training, the guillotine door connecting the light and dark compartment was kept closed. After each rat was placed in the light compartment with its back to the guillotine door, the door was opened and simultaneously the time (step-through latency; STL) taken by the rat to enter the dark compartment was measured with a stopwatch^(14). […] The rat was once again placed in the light compartment and as in the case of the training trial, the guillotine door was opened and the step-through latency was recorded and used as a measure of retention. […]
The step-through latency of rats in light compartment was recorded according to the method described in Example 1. […]

[5] = administered intravenously; reported by Xu et al.; cited from earlier work
[6] = test system: scopolamine plus mecamylamine-induced acquisition impairment of passive avoidance response in rats; experiment: Passive avoidance task, scopolamine plus mecamylamine-induced acquisition impairment; format: in vivo, rat; details: ferulic acid at 50-100 mg/ml (printed), scopolamine and mecamylamine co-administered under the threshold dosage, FIG. 6
Method: as §1

[7] = test system: scopolamine (SCOP)-induced acquisition impairment of passive avoidance response in rats; experiment: Passive avoidance task, scopolamine-induced acquisition impairment; format: in vivo, rat; details: ferulic acid at 50-100 mg/ml (printed), i.p. 1 hour before training trial, scopolamine 1 mg/kg i.p., FIG. 1
Method: as §1

[8] = test system: cycloheximide (CXM)-induced memory storage impairment of passive avoidance response in rats; experiment: Passive avoidance task, cycloheximide-induced memory consolidation impairment; format: in vivo, rat; details: ferulic acid at 50-100 mg/ml (printed), administered 60 minutes before the training trial, cycloheximide 1.5 mg/kg s.c., FIGS. 4-5
Method: as §1

[9] = test system: pirenzepine-induced acquisition impairment of passive avoidance response in rats; experiment: Passive avoidance task, pirenzepine-induced acquisition impairment; format: in vivo, rat; details: ferulic acid at 50-100 mg/ml (printed), i.p., pirenzepine 1 mg/kg i.p., FIG. 3
Method: as §1

[10] = test system: mecamylamine-induced acquisition impairment of passive avoidance response in rats; experiment: Passive avoidance task, mecamylamine-induced acquisition impairment; format: in vivo, rat; details: ferulic acid at 50-100 mg/ml (printed), i.p. 1 hour before training trial, mecamylamine 10 mg/kg i.p., FIG. 2
Method: as §1

COc1cc(C=CC(=O)O)ccc1O [ferulic acid, 4-hydroxy-3-methoxycinnamic acid]
blocking of the counteracting effects of ferulic acid on scopolamine-induced learning impairment by peripheral cholinergic antagonist scopolamine methylbromide ([1]; ferulic acid 100 mg/kg with scopolamine methylbromide 0.5 mg/kg i.p.): does not block | effect on scopolamine-induced acquisition impairment (passive avoidance) ([1]; ferulic acid at 100 mg/kg, scopolamine 0.3 mg/kg i.p.): ameliorates | effect on cerebral blood flow rate [2]: enhances | effect on scopolamine-induced acquisition impairment in a water maze [3]: ameliorates | effect on memory impairment induced by AF64A (passive avoidance) [4]: counteracts | half lethal dose (LD50) [5]: 866 ± 29 mg/kg | effect on learning impairment induced by scopolamine plus mecamylamine (passive avoidance) [6]: attenuates | effect on scopolamine-induced acquisition impairment (step-through latency, passive avoidance) [7]: attenuates | effect on CXM-induced consolidation impairment (step-through latency, passive avoidance) [8]: significantly ameliorates | effect on pirenzepine-induced acquisition impairment (step-through latency, passive avoidance) [9]: counteracts | effect on mecamylamine-induced acquisition impairment (step-through latency, passive avoidance) [10]: attenuates
